Data taken from ChEMBL document CHEMBL1201862, “PubChem BioAssay data set” (2004).
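Five concentrations, 48 hours, 96-well plates. At the GI50, growth is halved.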 Calls of active or inactive are those of the source. Cut-off read from the data, not from the text of the source: active = GI50 up to about 1.1 µM and inactive = higher.

Key:
Experiment in all cases: growth of human tumour cells (NCI), 48 h
OVCAR-5 = system: OVCAR-5
RXF 393 = system: RXF 393
SK-MEL-28 = system: SK-MEL-28
U-251 = system: U-251
UACC-257 = system: UACC-257
OVCAR-4 = system: OVCAR-4
786-0 = system: 786-0
RPMI-8226 = system: RPMI-8226
OVCAR-8 = system: OVCAR-8
Malme-3M = system: Malme-3M
MOLT-4 = system: MOLT-4
SF-295 = system: SF-295
HCT-15 = system: HCT-15
NCI-H226 = system: NCI-H226
LOX IMVI = system: LOX IMVI
K562 = system: K562
OVCAR-3 = system: OVCAR-3

Measured: GI50

O=C1CSc2ccnc(=O)n21
inactive: OVCAR-5 > 100 µM | RXF 393 > 100 µM | SK-MEL-28 > 100 µM | U-251 > 100 µM | UACC-257 > 100 µM | OVCAR-4 > 100 µM | 786-0 > 100 µM | RPMI-8226 > 100 µM | OVCAR-8 > 100 µM | Malme-3M > 100 µM | MOLT-4 > 100 µM

COC(OC)c1cccc2c1C(=O)CCC1(CC2)OCCCCO1
> 100 µM: HCT-15
inactive: OVCAR-5 > 100 µM | RXF 393 > 100 µM | SK-MEL-28 > 100 µM | U-251 > 100 µM | SF-295 > 100 µM | UACC-257 > 100 µM | NCI-H226 > 100 µM | OVCAR-4 > 100 µM | 786-0 > 100 µM | RPMI-8226 > 100 µM | OVCAR-8 > 100 µM | LOX IMVI > 100 µM | K562 > 100 µM | OVCAR-3 > 100 µM | Malme-3M > 100 µM | MOLT-4 > 100 µM

O=C1NC(=O)C2C(=O)NC(=O)C1C2c1c(Cl)cccc1Cl (configuration not stated)
> 100 µM: HCT-15
inactive: OVCAR-5 > 100 µM | RXF 393 > 43.1 µM | SK-MEL-28 > 100 µM | U-251 > 66.1 µM | SF-295 > 100 µM | UACC-257 > 67.9 µM | NCI-H226 > 100 µM | OVCAR-4 > 100 µM | 786-0 > 61.8 µM | RPMI-8226 > 46.6 µM | OVCAR-8 > 66.2 µM | LOX IMVI > 43 µM | K562 > 49.4 µM | OVCAR-3 > 100 µM | Malme-3M > 100 µM | MOLT-4 > 100 µM

COC1(OC)CC2C(=O)N(Cc3ccccc3)C1C(S(=O)(=O)c1ccccc1)C2S(=O)(=O)c1ccccc1 (configuration not stated)
3.62 µM: HCT-15
inactive: OVCAR-5 19.9 µM | RXF 393 12.6 µM | SK-MEL-28 13.7 µM | U-251 13.6 µM | SF-295 45.7 µM | UACC-257 7.38 µM | NCI-H226 19.7 µM | OVCAR-4 15.1 µM | 786-0 16.9 µM | RPMI-8226 15.9 µM | OVCAR-8 8.07 µM | LOX IMVI 10.2 µM | K562 7.48 µM | OVCAR-3 10.9 µM | Malme-3M 15.6 µM | MOLT-4 11.5 µM

Cc1cccc(N2C(=O)C(=O)C(c3nc4ccccc4s3)C(=O)C2=O)c1C
> 100 µM: HCT-15
inactive: OVCAR-5 > 100 µM | SK-MEL-28 > 100 µM | U-251 > 100 µM | SF-295 > 100 µM | UACC-257 > 100 µM | NCI-H226 > 100 µM | OVCAR-4 > 100 µM | 786-0 > 100 µM | RPMI-8226 > 100 µM | OVCAR-8 > 100 µM | LOX IMVI > 100 µM | K562 > 100 µM | OVCAR-3 > 100 µM | Malme-3M > 100 µM | MOLT-4 > 100 µM

CC1(C)CC(c2c[nH]c3ccccc23)=CC2=Nc3ccccc3C21O (configuration not stated)
inactive: OVCAR-5 > 100 µM | RXF 393 37.8 µM | SK-MEL-28 16.4 µM | U-251 33.2 µM | SF-295 38.5 µM | UACC-257 > 100 µM | NCI-H226 15.2 µM | OVCAR-4 8.38 µM | 786-0 43.7 µM | RPMI-8226 > 100 µM | OVCAR-8 27 µM | LOX IMVI > 100 µM | K562 91.6 µM | OVCAR-3 33.3 µM | Malme-3M > 100 µM | MOLT-4 > 100 µM
> 100 µM: HCT-15

O=C(Nc1ccccc1)Oc1ccccc1C1CCCCC1
16.6 µM: HCT-15
inactive: OVCAR-5 11.8 µM | RXF 393 2.96 µM | SK-MEL-28 29.6 µM | U-251 12 µM | SF-295 17.3 µM | UACC-257 16.9 µM | NCI-H226 13.2 µM | OVCAR-4 14.6 µM | 786-0 17.2 µM | RPMI-8226 19 µM | OVCAR-8 29.6 µM | LOX IMVI 13.8 µM | K562 17.9 µM | OVCAR-3 12.7 µM | Malme-3M 21.1 µM | MOLT-4 14.9 µM

Cc1c(C(=O)C/C(=N/NC(=O)c2ccccc2O)C(=O)Nc2ccccc2C(C)C)[n+]([O-])c2ccccc2[n+]1[O-]
inactive: OVCAR-5 > 100 µM | RXF 393 75.3 µM | SK-MEL-28 69.7 µM | U-251 45 µM | SF-295 56.9 µM | UACC-257 28.1 µM | NCI-H226 > 100 µM | OVCAR-4 31.8 µM | 786-0 49.7 µM | OVCAR-8 29.6 µM | LOX IMVI 32.1 µM | K562 33.7 µM | OVCAR-3 25.8 µM | Malme-3M 48.6 µM | MOLT-4 3.2 µM
30.3 µM: HCT-15

Cc1cccc(Nc2cn(CCOc3ccccc3)c(=O)n(CCOc3ccccc3)c2=O)c1
inactive: OVCAR-5 > 100 µM | RXF 393 > 100 µM | SK-MEL-28 > 100 µM | U-251 > 100 µM | SF-295 > 100 µM | UACC-257 > 100 µM | OVCAR-4 > 100 µM | 786-0 > 100 µM | RPMI-8226 67.5 µM | LOX IMVI > 100 µM | K562 > 100 µM | OVCAR-3 > 100 µM | MOLT-4 > 100 µM
> 100 µM: HCT-15

CC(C)=CCC/C(C)=C/COC(C)(C)C1=CCC(C)CC1.CC(C)=CCC/C(C)=C/COC1CC(C)CCC1=C(C)C (configuration not stated)
> 100 µM: HCT-15
inactive: OVCAR-5 > 100 µM | RXF 393 > 100 µM | SK-MEL-28 > 100 µM | U-251 > 100 µM | SF-295 > 100 µM | UACC-257 63.8 µM | OVCAR-4 > 100 µM | 786-0 > 100 µM | RPMI-8226 36.7 µM | OVCAR-8 > 100 µM | OVCAR-3 > 100 µM | Malme-3M > 100 µM | MOLT-4 18.2 µM

N#Cc1ccc(Oc2cccc(Oc3ccccc3)c2)cc1C#N
> 10 µM: HCT-15
inactive: OVCAR-5 > 10 µM | RXF 393 64 µM | SK-MEL-28 61.7 µM | U-251 71.1 µM | SF-295 76.2 µM | UACC-257 > 10 µM | NCI-H226 > 10 µM | OVCAR-4 36.7 µM | 786-0 > 10 µM | RPMI-8226 > 10 µM | OVCAR-8 > 10 µM | LOX IMVI > 10 µM | K562 41.4 µM | OVCAR-3 75.2 µM | Malme-3M > 10 µM | MOLT-4 30.8 µM

CCC1CNC(=O)CC1CC(=O)OC (configuration not stated)
> 100 µM: HCT-15
inactive: OVCAR-5 > 100 µM | RXF 393 > 100 µM | SK-MEL-28 > 100 µM | U-251 > 100 µM | NCI-H226 > 100 µM | OVCAR-4 > 100 µM | 786-0 > 100 µM | LOX IMVI > 100 µM | K562 > 100 µM | OVCAR-3 > 100 µM | Malme-3M > 100 µM | MOLT-4 > 100 µM

Cc1c(/C=C2\CC/C(=C\c3[nH]c(C(=O)OC(C)(C)C)c(C)c3C)C2=O)[nH]c(C(=O)OC(C)(C)C)c1C
inactive: OVCAR-5 > 100 µM | RXF 393 > 100 µM | U-251 > 100 µM | SF-295 > 100 µM | UACC-257 > 100 µM | NCI-H226 > 100 µM | OVCAR-4 > 100 µM | 786-0 > 100 µM | RPMI-8226 > 100 µM | OVCAR-8 > 100 µM | LOX IMVI > 100 µM | K562 > 100 µM | OVCAR-3 > 100 µM | Malme-3M > 100 µM | MOLT-4 > 100 µM
> 100 µM: HCT-15
